Experimental data reported in patent US20240132475A1, “SUBSTITUTED PYRAZOLYL COMPOUNDS AS MALT-1 INHIBITORS” (AURIGENE ONCOLOGY LIMITED, priority 2021, published 2024).

Target: T1, MALT-1 (Isoform 1) (Homo sapiens, UniProt Q9UDY8)
T1 construct: using recombinant MALT-1 (Isoform 1, aa-840) generated in house; made in house
T1 sequence (Q9UDY8 1-824): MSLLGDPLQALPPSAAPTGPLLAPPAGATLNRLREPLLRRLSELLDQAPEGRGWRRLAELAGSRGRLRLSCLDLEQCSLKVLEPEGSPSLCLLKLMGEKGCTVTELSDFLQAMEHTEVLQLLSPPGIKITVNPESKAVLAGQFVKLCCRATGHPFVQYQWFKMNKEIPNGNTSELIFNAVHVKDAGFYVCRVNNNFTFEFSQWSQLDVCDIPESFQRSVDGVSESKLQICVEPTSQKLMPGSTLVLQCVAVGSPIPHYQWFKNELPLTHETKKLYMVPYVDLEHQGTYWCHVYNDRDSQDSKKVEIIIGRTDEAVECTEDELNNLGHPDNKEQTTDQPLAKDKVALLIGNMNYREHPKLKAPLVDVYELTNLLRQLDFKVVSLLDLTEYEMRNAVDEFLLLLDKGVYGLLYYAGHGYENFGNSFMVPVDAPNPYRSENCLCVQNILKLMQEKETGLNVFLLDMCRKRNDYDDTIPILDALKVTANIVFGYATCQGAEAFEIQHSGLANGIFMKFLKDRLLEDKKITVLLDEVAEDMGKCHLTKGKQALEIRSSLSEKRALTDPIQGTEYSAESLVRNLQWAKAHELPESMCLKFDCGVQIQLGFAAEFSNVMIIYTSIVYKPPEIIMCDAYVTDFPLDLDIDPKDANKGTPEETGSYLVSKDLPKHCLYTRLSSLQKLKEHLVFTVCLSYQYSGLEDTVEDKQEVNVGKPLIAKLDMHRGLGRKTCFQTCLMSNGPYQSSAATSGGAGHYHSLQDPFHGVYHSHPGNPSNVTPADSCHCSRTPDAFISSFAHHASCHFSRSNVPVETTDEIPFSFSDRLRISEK
Assay: MALT-1 (Isoform 1) enzyme fluorescent biochemical assay
Conditions: for IC50: dose-response, sigmoidal curve fit, reported as groups A, B, C; for inhibition at 1 µM / Percent Inhibition (1 μM): test compound 1 μM, recombinant MALT-1 1.5 nM; for inhibition at 1 µM: read-out: Percent Inhibition (1 μM)
Experimental: The potency of compounds to inhibit MALT-1 (Isoform 1) enzyme was tested in a Fluorescent assay using recombinant MALT-1 (Isoform 1, aa-840) generated in house. The assay buffer was 50 mM HEPES (pH 7.5), 100 mM NaCl, 10 mM DTT, 1 mM EDTA, 0.9 M sodium citrate, 0.01% CHAPS. 1.5 nM of MALT-1 enzyme was incubated with test compounds ([…]) (1% DMSO) in the presence of buffer for 30 minutes at 30° C. The protease reaction was initiated by adding […] of AC-LRSR-MAC (Peptide International, USA) substrate and incubated for 240 min. After 240 min incubation, fluorescence emission of the samples at 460 nm was measured at an excitation of 355 nm. The percent inhibition was calculated using the following formula: […]. IC50 values were determined by fitting the dose-response data to sigmoidal curve fitting equation using Graph pad prism software V8.
ND represents Not Determined.

Compound | IC50 | inhibition at 1 µM | Percent Inhibition (1 μM)
COc1c(F)cccc1Cn1ncc(C(=O)Nc2cnc(-n3nccn3)c(C#N)c2)c1C(F)(F)F [Compound 39, N-(5-cyano-6-(2H-1,2,3-triazol-2-yl)pyridin-3-y1)-1-(3-fluoro-2-methoxybenzyl)-5-(trifluoromethyl)-1H-pyrazole-4-carboxamide] | < 250 nM | 100% | 
CC(c1cccc(F)c1)n1ncc(C(=O)Nc2cnc(-n3nccn3)c(Cl)c2)c1C(F)(F)F (single isomer, unassigned) [Compound 4b] | < 250 nM | 94% | 
N#Cc1cc(NC(=O)c2cnn(Cc3ccncc3)c2C(F)(F)F)cnc1-n1nccn1 [Compound 13, N-(5-cyano-6-(2H-1,2,3-triazol-2-yl)pyridin-3-yl)-1-(pyridin-4-ylmethyl)-5-(trifluoromethyl)-1H-pyrazole-4-carboxamide] | > 1000 nM | 40% | 
N#Cc1cc(NC(=O)c2cnn(Cc3cc(F)ccc3F)c2C(F)(F)F)cnc1-n1nccn1 [Compound 29, N-(5-cyano-6-(2H-1,2,3-triazol-2-yl)pyridin-3-y1)-1-(2,5-difluorobenzyl)-5-(trifluoromethyl)-1H-pyrazole-4-carboxamide] | 251 to 1000 nM | 70% | 
CC(c1cccc(F)c1)n1ncc(C(=O)Nc2cnc(-n3nccn3)c(C#N)c2)c1C(F)(F)F (single isomer, unassigned) [Compound 3a] | 251 to 1000 nM |  | 76%
O=C(Nc1cncc(C(F)(F)F)c1)c1cnn(Cc2cccc(F)c2Cl)c1C(F)(F)F [Compound 42, 1-(2-chloro-3-fluorobenzyl)-5-(trifluoromethyl)-N-(5-(trifluoromethyl)pyridin-3-yl)-1H-pyrazole-4-carboxamide] | 251 to 1000 nM | 71% | 
N#Cc1cccc(Cn2ncc(C(=O)Nc3cnc(-n4nccn4)c(C#N)c3)c2C(F)(F)F)c1 [Compound 12, N-(5-cyano-6-(2H-1,2,3-triazol-2-yl)pyridin-3-y1)-1-(3-cyanobenzyl)-5-(trifluoromethyl)-1H-pyrazole-4-carboxamide] | < 250 nM | 98% | 
Cc1c(F)cccc1Cn1ncc(C(=O)Nc2cnc(-n3nccn3)c(C(F)(F)F)c2)c1C(F)(F)F [Compound 31, N-(6-(2H-1,2,3-triazol-2-y1)-5-(trifluoromethyl)pyridin-3-y1)-1-(3-fluoro-2-methylbenzy1)-5-(trifluoromethyl)-1H-pyrazole-4-carboxamide] | < 250 nM | 95% | 
O=C(Nc1cnnc(C(F)(F)F)c1)c1cnn(Cc2cccc(F)c2Cl)c1C(F)(F)F [Compound 53, 1-(2-chloro-3-fluorobenzyl)-5-(trifluoromethyl)-N-(6-(trifluoromethyl)pyridazin-4-yl)-1H-pyrazole-4-carboxamide] | 251 to 1000 nM | 60% | 
N#Cc1cc(NC(=O)c2cnn(Cc3cccc(F)c3C(F)(F)F)c2C(F)(F)F)cnc1-n1nccn1 [Compound 33, N-(5-cyano-6-(2H-1,2,3-triazol-2-yl)pyridin-3-y1)-1-(3-fluoro-2-(trifluoromethyl)benzy1)-5-(trifluoromethyl)-1H-pyrazole-4-carboxamide] | < 250 nM | 99% | 

Next, values leading:

IC50 | inhibition at 1 µM | Percent Inhibition (1 μM) | Compound
< 250 nM | 100% |  | N#Cc1cc(NC(=O)c2cnn(Cc3cccc(F)c3F)c2C(F)(F)F)cnc1-n1nccn1 [Compound 27, N-(5-cyano-6-(2H-1,2,3-triazol-2-yl)pyridin-3-y1)-1-(2,3-difluorobenzyl)-5-(trifluoromethyl)-1H-pyrazole-4-carboxamide]
251 to 1000 nM | 81% |  | CCC(c1cccc(F)c1)n1ncc(C(=O)Nc2cnc(-n3nccn3)c(C#N)c2)c1C(F)(F)F (centres unmarked) [Compound 6, N-(5-cyano-6-(2H-1,2,3-triazol-2-yl)pyridin-3-y1)-1-(1-(3-fluorophenyl)propyl)-5-(trifluoromethyl)-1H-pyrazole-4-carboxamide]
251 to 1000 nM | 88% |  | CC(c1cccc(Cl)c1)n1ncc(C(=O)Nc2cnc(-n3nccn3)c(Cl)c2)c1C(F)(F)F (centres unmarked) [Compound 49, N-(5-chloro-6-(2H-1,2,3-triazol-2-yl)pyridin-3-yl)-1-(1-(3-chlorophenyl)ethyl)-5-(trifluoromethyl)-1H-pyrazole-4-carboxamide]
> 1000 nM | 45% |  | N#Cc1cc(NC(=O)c2cnn(Cc3cccc(F)c3)c2C2CC2)cnc1-n1nccn1 [Compound 23, N-(5-cyano-6-(2H-1,2,3-triazol-2-yl)pyridin-3-yl)-5-cyclopropyl-1-(3-fluorobenzyl)-1H-pyrazole-4-carboxamide]
< 250 nM |  | 99% | CC(c1ccccc1)n1ncc(C(=O)Nc2cnc(-n3nccn3)c(C#N)c2)c1C(F)(F)F (single isomer, unassigned) [Compound 2a]
< 250 nM | 100% |  | Cc1c(F)cccc1C(C)n1ncc(C(=O)Nc2cnc(-n3nccn3)c(C#N)c2)c1C(F)(F)F (centres unmarked) [Compound 52, N-(5-cyano-6-(2H-1,2,3-triazol-2-yl)pyridin-3-yl)-1-(1-(3-fluoro-2-methylphenyl)ethyl)-5-(trifluoromethyl)-1H-pyrazole-4-carboxamide]
> 1000 nM | 14% |  | O=C(Nc1cncnc1)c1cnn(Cc2cccc(F)c2Cl)c1C(F)(F)F [Compound 41, 1-(2-chloro-3-fluorobenzyl)-N-(pyrimidin-5-y1)-5-(trifluoromethyl)-1H-pyrazole-4-carboxamide]
> 1000 nM | 42% |  | COc1cc(F)cc(Cn2ncc(C(=O)Nc3cnc(-n4nccn4)c(C#N)c3)c2C(F)(F)F)c1 [Compound 35, N-(5-cyano-6-(2H-1,2,3-triazol-2-yl)pyridin-3-yl)-1-(3-fluoro-5-methoxybenzyl)-5-(trifluoromethyl)-1H-pyrazole-4-carboxamide]
> 1000 nM | 38% |  | O=C(Nc1cc(C(F)(F)F)ncn1)c1cnn(Cc2cccc(F)c2Cl)c1C(F)(F)F [Compound 44, 1-(2-chloro-3-fluorobenzyl)-5-(trifluoromethyl)-N-(6-(trifluoromethyl)pyrimidin-4-yl)-1H-pyrazole-4-carboxamide]
251 to 1000 nM |  | 78% | CC(c1ccccc1)n1ncc(C(=O)Nc2cnc(-n3nccn3)c(Cl)c2)c1C(F)(F)F (single isomer, unassigned) [Compound 5a]
251 to 1000 nM | 89% |  | CC(c1ccccc1)n1ncc(C(=O)Nc2cnc(-n3nccn3)c(Cl)c2)c1C(F)(F)F (racemic) [Compound 5, N-(5-chloro-6-(2H-1,2,3-triazol-2-yl)pyridin-3-yl)-1-(1-phenylethyl)-5-(trifluoromethyl)-1H-pyrazole-4-carboxamide]
< 250 nM | 96% |  | CC(c1ccccc1)n1ncc(C(=O)Nc2cnc(-n3nccn3)c(C#N)c2)c1C(F)(F)F (racemic) [Compound 2, N-(5-cyano-6-(2H-1,2,3-triazol-2-yl)pyridin-3-yl)-1-(1-phenylethyl)-5-(trifluoromethyl)-1H-pyrazole-4-carboxamide]
< 250 nM | 99% |  | O=C(Nc1cnc(-n2nccn2)c(Cl)c1)c1cnn(Cc2cccc(F)c2Cl)c1C(F)(F)F [Compound 34, 1-(2-chloro-3-fluorobenzy1)-N-(5-chloro-6-(2H-1,2,3-triazol-2-yl)pyridin-3-yl)-5-(trifluoromethyl)-1H-pyrazole-4-carboxamide]
251 to 1000 nM | 63% |  | N#Cc1cc(NC(=O)c2cnn(Cc3cccc(F)c3Cl)c2C(F)(F)F)cnc1-c1ccsc1 [Compound 55, 1-(2-chloro-3-fluorobenzyl)-N-(5-cyano-6-(thiophen-3-y1)pyridin-3-y1)-5-(trifluoromethyl)-1H-pyrazole-4-carboxamide]
< 250 nM | 100% |  | O=C(Nc1cnc(-n2nccn2)c(Cl)c1)c1cnn(Cc2cccc(F)c2)c1C(F)(F)F [Compound 25, N-(5-chloro-6-(2H-1,2,3-triazol-2-yl)pyridin-3-yl)-1-(3-fluorobenzyl)-5-(trifluoromethyl)-1H-pyrazole-4-carboxamide]
